Read-outs that look alike come from different tables or passages of the source.
Legend:
[1] = test system: histone acetyltransferases; experiment: HAT inhibition test of salicylic acid and benzoic acid; format: biochemical
Protocol: (§1) HAT assays were performed as described elsewhere (12). Briefly, indicated amounts of proteins/peptide were incubated in HAT-assay buffer containing 50 Mm Tris-HCl, Ph 8.0, 10% (v/v) glycerol, 1 Mm dithiothreitol, 1 Mm phenylmethyl sulfonyl fluoride, 0.1 Mm EDTA, Ph 8.0, 10 Mm sodium butyrate at 30° C. for 10 min in presence or absence of compound followed by the addition of 1 pi of 6.2 Ci/mmol [^3H]-acetyl Coenzyme A (acetyl-CoA) and were further incubated for another 10 min. The final reaction volume was 30 ul. The reaction mixture was then blotted onto P-81 (Whatman) filter papers and radioactive counts were recorded on a Wallac 1409 liquid scintillation counter.

PCAF = biological target: T1, PCAF (Homo sapiens, UniProt Q92831); experiment: HAT assay (filter binding) with PCAF and core histones; format: biochemical
T1 construct: FLAG; made in house; host or cells: insect cell line (printed 'Si 217', probably Sf21), recombinant baculovirus
Excerpt: (§2) B: Biochemical Methods: Purification of Human Core Histones and Recombinant Proteins-Human core histones were purified from HeLa nuclear pellet as described previously (12). The FLAG epitope tagged Human Topoisomerase I, histone deacetylase 1 (HDAC1) and PCAF, were purified from the recombinant baculovirus infected insect cell line, Si 217 by the immunoaffinity purification using M2-agarose (SIGMA)(13). Full-length p300 was also purified from the recombinant baculovirus infected Sf21 cells as a His6-tagged protein through the Ni-NTA affinity column (Qiagen) as described previously (12). The His6-tagged nucleosome assembly protein 1 (NAP1), used for the in vitro chromatin assembly was purified from E. coli cells as previously reported (12) and the FLAG-tagged chimeric activator Ga14-VP16, expressed in E. coli and purified by immunoaffinity purification with M2 agarose. Human positive transcriptional coactivator, PC4, was expressed in E. coli and purified as described earlier (14).
HAT assays were performed as described elsewhere (12). […] The reaction mixture was then blotted onto P-81 (Whatman) filter papers and radioactive counts were recorded on a Wallac 1409 liquid scintillation counter.

[2] = test system: basal transcription machinery; experiment: In vitro transcription assay from histone-free DNA template; format: biochemical, human; conditions: compared to DMSO control
Protocol: (§3) In Vitro Transcription Assay: Transcription assays were essentially carried out as described elsewhere (8), with minor modifications. The scheme of transcription is enumerated in FIG. 6A. Briefly, 30 ng of DNA/equivalent amount of chromatin template was incubated with 30 ng of activator (Gal4-VP16) in a buffer containing 4 mM HEPES (pH 7.8), 20 mM KCl, 2 mM DTT, 0.2 mM PMSF, 10 mM sodium butyrate, 0.1 mg/ml BSA, 2% glycerol (8). The activating compounds were added to the acetylation reaction along with p300 and acetyl-CoA, and incubated for 30 min. at 30° C. This was followed by addition of the p300 specific inhibitor Lysyl CoA (5 nom) to quench the acetylation reaction.
For inhibitors, the HAT p300 was pre-incubated with indicated amounts of inhibitor on ice for 20 min., following which it was added to the acetylation reaction in the transcription assay. For the DNA transcription assays and chromatin transcription inhibition assays, the Lysyl CoA step was omitted. […] The ^32P-radiolabeled transcript was extracted with phenol-chloroform, ethanol precipitated, dried pellet dissolved in loading dye (8 M Urea, 0.005% bromophenol blue and xylene cyanol) and analyzed on 5% urea-polyacrylamide gel. […] Quantification of transcription was done by Fuji BAS system. Quantitation of DNA and chromatin transcription data represents three independent experiments.

p300 [3] = biological target: T2, p300 (Homo sapiens, UniProt Q09472); experiment: HAT assay (filter binding) with p300 and core histones; format: biochemical; parameters: Full-length p300 was also purified from the recombinant baculovirus infected Sf21 cells as a His6-tagged protein; His6; made in house; host or cells: Sf21 insect cells (recombinant baculovirus)
Excerpt: as §2, §1
Target sequence in this assay (Q09472 whole entry): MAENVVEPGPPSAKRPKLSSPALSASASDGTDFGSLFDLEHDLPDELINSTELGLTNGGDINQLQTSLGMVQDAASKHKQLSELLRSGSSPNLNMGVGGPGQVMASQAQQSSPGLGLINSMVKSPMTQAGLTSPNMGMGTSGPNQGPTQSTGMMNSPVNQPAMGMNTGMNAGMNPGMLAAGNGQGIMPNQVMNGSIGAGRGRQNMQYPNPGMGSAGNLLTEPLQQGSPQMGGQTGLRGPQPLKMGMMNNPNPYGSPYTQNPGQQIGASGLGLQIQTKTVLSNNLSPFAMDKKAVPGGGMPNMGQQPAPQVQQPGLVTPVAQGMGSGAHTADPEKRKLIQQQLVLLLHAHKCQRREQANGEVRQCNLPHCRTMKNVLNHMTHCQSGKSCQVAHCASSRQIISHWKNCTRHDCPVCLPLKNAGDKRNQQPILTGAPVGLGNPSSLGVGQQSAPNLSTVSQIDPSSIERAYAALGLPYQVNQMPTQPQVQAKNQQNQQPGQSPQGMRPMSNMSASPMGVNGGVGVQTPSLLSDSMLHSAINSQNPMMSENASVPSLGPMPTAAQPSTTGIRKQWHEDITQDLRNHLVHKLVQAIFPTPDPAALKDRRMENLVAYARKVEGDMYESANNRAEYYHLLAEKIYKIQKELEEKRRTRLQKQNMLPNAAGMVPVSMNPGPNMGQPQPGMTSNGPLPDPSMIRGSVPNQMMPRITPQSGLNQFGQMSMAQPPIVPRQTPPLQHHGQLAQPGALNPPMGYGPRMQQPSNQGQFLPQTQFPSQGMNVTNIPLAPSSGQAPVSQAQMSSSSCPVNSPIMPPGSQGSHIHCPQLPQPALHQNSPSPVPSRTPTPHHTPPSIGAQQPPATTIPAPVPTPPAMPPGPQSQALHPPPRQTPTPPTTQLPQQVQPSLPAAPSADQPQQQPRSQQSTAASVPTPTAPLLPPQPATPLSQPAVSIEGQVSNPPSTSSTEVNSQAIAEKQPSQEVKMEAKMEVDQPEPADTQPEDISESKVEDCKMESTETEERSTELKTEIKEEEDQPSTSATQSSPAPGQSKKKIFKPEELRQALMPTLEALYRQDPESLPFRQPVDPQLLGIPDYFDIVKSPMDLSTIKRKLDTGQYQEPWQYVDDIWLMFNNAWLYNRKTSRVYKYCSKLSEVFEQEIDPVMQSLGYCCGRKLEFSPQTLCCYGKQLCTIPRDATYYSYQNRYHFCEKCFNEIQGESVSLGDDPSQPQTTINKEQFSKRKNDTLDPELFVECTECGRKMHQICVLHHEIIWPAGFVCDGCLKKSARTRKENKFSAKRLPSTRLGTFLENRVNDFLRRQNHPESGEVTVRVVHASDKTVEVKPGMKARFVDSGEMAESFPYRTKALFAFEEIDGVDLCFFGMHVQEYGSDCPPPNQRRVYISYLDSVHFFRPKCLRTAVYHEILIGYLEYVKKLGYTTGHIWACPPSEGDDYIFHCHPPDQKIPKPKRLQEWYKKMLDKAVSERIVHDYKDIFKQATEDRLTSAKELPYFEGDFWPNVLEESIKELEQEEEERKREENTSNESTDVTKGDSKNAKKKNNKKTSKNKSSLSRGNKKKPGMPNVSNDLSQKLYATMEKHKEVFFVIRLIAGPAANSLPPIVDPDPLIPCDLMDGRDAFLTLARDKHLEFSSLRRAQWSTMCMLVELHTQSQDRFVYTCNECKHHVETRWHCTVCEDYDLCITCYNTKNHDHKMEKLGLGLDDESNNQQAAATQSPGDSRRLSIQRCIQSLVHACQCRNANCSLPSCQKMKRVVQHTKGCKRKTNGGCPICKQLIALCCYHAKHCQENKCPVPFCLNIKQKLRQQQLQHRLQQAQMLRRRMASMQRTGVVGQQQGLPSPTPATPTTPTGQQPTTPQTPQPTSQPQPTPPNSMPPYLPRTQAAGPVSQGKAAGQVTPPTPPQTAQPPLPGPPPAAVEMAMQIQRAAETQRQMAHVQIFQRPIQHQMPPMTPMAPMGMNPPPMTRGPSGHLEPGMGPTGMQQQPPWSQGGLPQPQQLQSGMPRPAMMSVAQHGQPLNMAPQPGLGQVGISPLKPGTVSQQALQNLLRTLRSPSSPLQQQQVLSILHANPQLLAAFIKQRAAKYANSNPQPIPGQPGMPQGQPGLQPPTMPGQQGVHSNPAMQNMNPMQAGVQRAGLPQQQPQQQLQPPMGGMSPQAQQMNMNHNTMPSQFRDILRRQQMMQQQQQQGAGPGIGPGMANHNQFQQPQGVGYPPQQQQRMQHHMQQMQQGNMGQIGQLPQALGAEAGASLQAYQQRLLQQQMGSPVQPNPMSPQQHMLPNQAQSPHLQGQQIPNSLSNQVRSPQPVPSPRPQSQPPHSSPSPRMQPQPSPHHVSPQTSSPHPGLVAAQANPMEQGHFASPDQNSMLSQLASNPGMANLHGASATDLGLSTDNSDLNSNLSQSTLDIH
In order to characterize the inhibition kinetics of anacardic acid, filter-binding assays were done using constant amount of HeLa core histones in the presence or absence of AA with increasing concentrations of [3H]-acetyl CoA (see FIG. 3E). To visualize the radiolabeled acetylated histones, the reaction mixtures were resolved on 15% SDS-PAGE and processed for fluorography as described elsewhere (14).

p300 [4] = biological target: T2, p300; experiment: In vitro p300 HAT-dependent transcription assay from chromatin template; format: biochemical; parameters: Full-length p300 was also purified from the recombinant baculovirus infected Sf21 cells as a His6-tagged protein; His6; made in house; host or cells: Sf21 insect cells (recombinant baculovirus)
Protocol: In Vitro Chromatin assembly: Chromatin template for in vitro transcription experiments was assembled and characterized as described earlier (8).
as §3
Target sequence in this assay (Q09472 whole entry): as above
For inhibitors, the HAT p300 was pre-incubated with indicated amounts of inhibitor on ice for 20 min., following which it was added to the acetylation reaction in the transcription assay. […] The ^32P-radiolabeled transcript was extracted with phenol-chloroform, ethanol precipitated, dried pellet dissolved in loading dye (8 M Urea, 0.005% bromophenol blue and xylene cyanol) and analyzed on 5% urea-polyacrylamide gel. […] Quantification of transcription was done by Fuji BAS system. Quantitation of DNA and chromatin transcription data represents three independent experiments.

p300 [5] = biological target: T2, p300; conditions: cited from earlier work
Target sequence in this assay (Q09472 whole entry, species assumed): as the sequence (Q09472 whole entry) above

T1 sequence (Q92831 whole entry): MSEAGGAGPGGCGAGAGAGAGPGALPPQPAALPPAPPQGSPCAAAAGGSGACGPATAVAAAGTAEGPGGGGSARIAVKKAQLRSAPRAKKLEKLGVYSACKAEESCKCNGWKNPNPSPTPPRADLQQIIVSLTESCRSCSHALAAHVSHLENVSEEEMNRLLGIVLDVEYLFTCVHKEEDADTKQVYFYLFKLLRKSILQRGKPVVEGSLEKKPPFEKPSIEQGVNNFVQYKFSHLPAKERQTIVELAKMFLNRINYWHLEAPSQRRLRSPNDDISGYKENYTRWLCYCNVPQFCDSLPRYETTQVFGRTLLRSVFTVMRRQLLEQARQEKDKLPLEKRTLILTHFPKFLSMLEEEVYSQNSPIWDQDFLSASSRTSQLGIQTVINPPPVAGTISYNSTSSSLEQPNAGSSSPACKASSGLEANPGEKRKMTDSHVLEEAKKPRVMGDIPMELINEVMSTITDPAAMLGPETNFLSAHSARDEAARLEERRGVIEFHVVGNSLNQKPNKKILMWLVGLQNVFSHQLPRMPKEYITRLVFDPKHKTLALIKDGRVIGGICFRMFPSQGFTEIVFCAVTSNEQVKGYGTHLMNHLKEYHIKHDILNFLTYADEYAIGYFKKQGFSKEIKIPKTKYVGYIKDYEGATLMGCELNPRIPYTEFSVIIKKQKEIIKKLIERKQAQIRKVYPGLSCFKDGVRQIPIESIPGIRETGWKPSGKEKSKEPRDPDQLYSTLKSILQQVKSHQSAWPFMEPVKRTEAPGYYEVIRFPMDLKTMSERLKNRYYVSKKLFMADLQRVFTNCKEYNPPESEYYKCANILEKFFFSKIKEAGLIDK

Question: For O=C(O)c1ccccc1O [salicylic acid], which “inhibitory activity against histone acetyltransferases” value [1] is on record?
Answer: The value was “Neither salicylic acid nor benzoic acid shown any inhibitory activity”.

Question: What does the source list for CCCCCCCCCCCCCCCc1cccc(O)c1C(=O)O [anacardic acid, 2-hydroxy-6-pentadecylbenzoic acid]?
Answer: inhibition of HAT activity of PCAF (PCAF): inhibits; effect on transcript levels from DNA template [2]: but not DNA transcription; inhibitory activity towards p300 HAT activity (p300 [3]): inhibits; type of p300-HAT inhibition (double reciprocal plot 1/c.p.m. vs. 1/[Acetyl CoA]) (p300 [3]; increasing [3H]-acetyl CoA, constant amount of core histones): non-competitive; inhibitory activity towards p300 HAT activity (p300 [3]; listed as Anacardic acid): equally potent inhibitory activity; inhibition of p300 HAT activity dependent transcription from the chromatin template (p300 [4]): inhibits

Question: For Lys-CoA, which “inhibition of HAT activity of p300” value (p300 [5]) is on record?
Answer: The value was “specifically inhibit”.

Question: With CCCCCCCCCCCCCCCc1cccc(OCC)c1C(=O)Nc1ccc(Cl)c(C(F)(F)F)c1 [CTPB, N-(4-Chloro-3-trifluoromethyl-phenyl)-2-ethoxy-6-pentadecyl-benzamide] as the compound, how does the “increase in histone acetylation levels” value (p300 [3]) read?
Answer: The value was about 5 fold.

Question: And the “enhancement of p300 HAT activity” value (p300 [3]; human core histones)?
Answer: The value was “specifically enhances”.

Question: What about the “enhancement of levels of HAT-dependent transcription from chromatin template over DMSO control” value (p300 [4]; added with p300 and acetyl CoA, 30 min acetylation) of the same compound?
Answer: Its value is 1.6 fold.

Question: Which “inhibitory activity against histone acetyltransferases” value [1] does the source give for O=C(O)c1ccccc1 [benzoic acid] here?
Answer: The value was “Neither salicylic acid nor benzoic acid shown any inhibitory activity”.

Source: patent publication US7750047B2, “Modulators (inhibitors/activators) of histone acetyltransferases” (Jawaharlal Nehru Centre for Advanced Scientific Research, priority 2002, dated 2010)
